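96-well plates; 48 h exposure; 5 concentrations. Endpoints by linear interpolation between flanking doses. Not reached: highest tested concentration assigned. The concentration for full growth arrest is given as TGI.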
Assays:
Test in all cases: NCI tumour cell line growth inhibition, 48 h
A498 renal = system: A498 renal
A549 NSCLC = system: A549 NSCLC
CAKI-1 renal = system: CAKI-1 renal
CCRF-CEM leukemia = system: CCRF-CEM leukemia
COLO 205 colon = system: COLO 205 colon
DLD-1 colon = system: DLD-1 colon
DMS 114 small cell lung = system: DMS 114 small cell lung
DMS 273 small cell lung = system: DMS 273 small cell lung
EKVX NSCLC = system: EKVX NSCLC
HCC-2998 colon = system: HCC-2998 colon
HCT-116 colon = system: HCT-116 colon
HCT-15 colon = system: HCT-15 colon
HL-60(TB) leukemia = system: HL-60(TB) leukemia
HOP-18 NSCLC = system: HOP-18 NSCLC
HOP-62 NSCLC = system: HOP-62 NSCLC
HOP-92 NSCLC = system: HOP-92 NSCLC
HT29 colon = system: HT29 colon
IGROV1 ovarian = system: IGROV1 ovarian
K-562 leukemia = system: K-562 leukemia
KM12 colon = system: KM12 colon
KM20L2 colon = system: KM20L2 colon
LOX IMVI melanoma = system: LOX IMVI melanoma
M19-MEL melanoma = system: M19-MEL melanoma
MALME-3M melanoma = system: MALME-3M melanoma
MCF7 breast = system: MCF7 breast
MOLT-4 leukemia = system: MOLT-4 leukemia
NCI-H226 lung = system: NCI-H226 lung
NCI-H23 lung = system: NCI-H23 lung
NCI-H460 lung = system: NCI-H460 lung
NCI-H522 lung = system: NCI-H522 lung
NCI/ADR-RES ovarian = system: NCI/ADR-RES ovarian
OVCAR-3 ovarian = system: OVCAR-3 ovarian
OVCAR-4 ovarian = system: OVCAR-4 ovarian
OVCAR-5 ovarian = system: OVCAR-5 ovarian
OVCAR-8 ovarian = system: OVCAR-8 ovarian
P388/ADR leukemia = system: P388/ADR leukemia
RPMI-8226 leukemia = system: RPMI-8226 leukemia
RXF 393 renal = system: RXF 393 renal
SF-268 CNS = system: SF-268 CNS
SF-295 CNS = system: SF-295 CNS
SF-539 CNS = system: SF-539 CNS
SK-MEL-2 melanoma = system: SK-MEL-2 melanoma
SK-MEL-28 melanoma = system: SK-MEL-28 melanoma
SK-MEL-5 melanoma = system: SK-MEL-5 melanoma
SK-OV-3 ovarian = system: SK-OV-3 ovarian
SN12C renal = system: SN12C renal
SN12K1 renal = system: SN12K1 renal
SNB-19 CNS = system: SNB-19 CNS
SNB-75 CNS = system: SNB-75 CNS
SNB-78 CNS = system: SNB-78 CNS
SW-620 colon = system: SW-620 colon
U251 CNS = system: U251 CNS
UACC-257 melanoma = system: UACC-257 melanoma
UACC-62 melanoma = system: UACC-62 melanoma
UO-31 renal = system: UO-31 renal
XF 498 CNS = system: XF 498 CNS
P388 leukemia = system: P388 leukemia

Compound: COc1cccc2c1C(=O)c1c(O)c3c(c(O)c1C2=O)CC(O)(C(=O)CO)CC3OC1CC(N)C(I)C(C)O1 (configuration not stated)
- TGI (A498 renal): 21.4 µM
- TGI (A549 NSCLC): > 55.1 µM
- TGI (CAKI-1 renal): > 100 µM
- TGI (CCRF-CEM leukemia): > 100 µM
- TGI (COLO 205 colon): > 100 µM
- TGI (DLD-1 colon): 13.7 µM
- TGI (DMS 114 small cell lung): > 30.2 µM
- TGI (DMS 273 small cell lung): 7.03 µM
- TGI (EKVX NSCLC): > 55.5 µM
- TGI (HCC-2998 colon): 27.1 µM
- TGI (HCT-116 colon): 6.12 µM
- TGI (HCT-15 colon): 14.6 µM
- TGI (HL-60(TB) leukemia): > 100 µM
- TGI (HOP-18 NSCLC): 65.7 µM
- TGI (HOP-62 NSCLC): 13.9 µM
- TGI (HOP-92 NSCLC): > 63 µM
- TGI (HT29 colon): > 100 µM
- TGI (IGROV1 ovarian): 18.4 µM
- TGI (K-562 leukemia): > 100 µM
- TGI (KM12 colon): > 100 µM
- TGI (KM20L2 colon): > 54.2 µM
- TGI (LOX IMVI melanoma): 9.15 µM
- TGI (M19-MEL melanoma): 30.7 µM
- TGI (MALME-3M melanoma): 25.1 µM
- TGI (MCF7 breast): 29.4 µM
- TGI (MOLT-4 leukemia): > 100 µM
- TGI (NCI-H226 lung): 2.95 µM
- TGI (NCI-H23 lung): 15.1 µM
- TGI (NCI-H460 lung): 12.6 µM
- TGI (NCI-H522 lung): > 100 µM
- TGI (NCI/ADR-RES ovarian): > 31.6 µM
- TGI (OVCAR-3 ovarian): > 57.6 µM
- TGI (OVCAR-4 ovarian): 26.9 µM
- TGI (OVCAR-5 ovarian): > 54.6 µM
- TGI (OVCAR-8 ovarian): 34.1 µM
- TGI (P388/ADR leukemia): > 20.1 µM
- TGI (RPMI-8226 leukemia): > 100 µM
- TGI (RXF 393 renal): 25.2 µM
- TGI (SF-268 CNS): > 100 µM
- TGI (SF-295 CNS): 23.3 µM
- TGI (SF-539 CNS): 11.8 µM
- TGI (SK-MEL-2 melanoma): 30.4 µM
- TGI (SK-MEL-28 melanoma): > 100 µM
- TGI (SK-MEL-5 melanoma): 14.5 µM
- TGI (SK-OV-3 ovarian): 18.6 µM
- TGI (SN12C renal): > 63.8 µM
- TGI (SN12K1 renal): > 37.2 µM
- TGI (SNB-19 CNS): > 100 µM
- TGI (SNB-75 CNS): > 100 µM
- TGI (SNB-78 CNS): > 100 µM
- TGI (SW-620 colon): > 100 µM
- TGI (U251 CNS): 19.3 µM
- TGI (UACC-257 melanoma): > 52.3 µM
- TGI (UACC-62 melanoma): 7.43 µM
- TGI (UO-31 renal): 17.5 µM
- TGI (XF 498 CNS): 22.2 µM

Compound: CCOCCOc1ccc(OCCOCC)cc1
- TGI (A498 renal): > 61.8 µM
- TGI (A549 NSCLC): > 100 µM
- TGI (CCRF-CEM leukemia): 9.84 µM
- TGI (COLO 205 colon): 33.3 µM
- TGI (DLD-1 colon): 28.2 µM
- TGI (DMS 114 small cell lung): 17.1 µM
- TGI (DMS 273 small cell lung): > 58.4 µM
- TGI (HCC-2998 colon): > 100 µM
- TGI (HCT-116 colon): 33.4 µM
- TGI (HCT-15 colon): 40.3 µM
- TGI (HL-60(TB) leukemia): 12.7 µM
- TGI (HOP-18 NSCLC): 61.3 µM
- TGI (HOP-62 NSCLC): > 100 µM
- TGI (HT29 colon): 38.9 µM
- TGI (IGROV1 ovarian): 38 µM
- TGI (K-562 leukemia): 24.2 µM
- TGI (KM12 colon): > 100 µM
- TGI (KM20L2 colon): 47.2 µM
- TGI (LOX IMVI melanoma): 33.8 µM
- TGI (M19-MEL melanoma): > 62.5 µM
- TGI (MALME-3M melanoma): 45.8 µM
- TGI (MCF7 breast): 32.9 µM
- TGI (MOLT-4 leukemia): > 43 µM
- TGI (NCI-H226 lung): > 73.1 µM
- TGI (NCI-H23 lung): > 100 µM
- TGI (NCI-H460 lung): > 73.7 µM
- TGI (NCI/ADR-RES ovarian): 39.3 µM
- TGI (OVCAR-3 ovarian): > 49.3 µM
- TGI (OVCAR-4 ovarian): 20.7 µM
- TGI (OVCAR-5 ovarian): > 100 µM
- TGI (OVCAR-8 ovarian): 35.4 µM
- TGI (P388 leukemia): > 100 µM
- TGI (RPMI-8226 leukemia): 26.4 µM
- TGI (RXF 393 renal): 33 µM
- TGI (SF-268 CNS): 36 µM
- TGI (SF-295 CNS): > 57.2 µM
- TGI (SK-MEL-2 melanoma): > 63.7 µM
- TGI (SK-MEL-28 melanoma): 40.8 µM
- TGI (SK-MEL-5 melanoma): > 54 µM
- TGI (SK-OV-3 ovarian): > 100 µM
- TGI (SN12C renal): 31.8 µM
- TGI (SN12K1 renal): 31.6 µM
- TGI (SNB-19 CNS): > 100 µM
- TGI (SNB-75 CNS): 52.8 µM
- TGI (SNB-78 CNS): > 57.7 µM
- TGI (SW-620 colon): 40.1 µM
- TGI (U251 CNS): > 100 µM
- TGI (UACC-257 melanoma): 32.3 µM
- TGI (UACC-62 melanoma): 38.7 µM
- TGI (UO-31 renal): 26.9 µM
- TGI (XF 498 CNS): 30.1 µM

Reference: PubChem BioAssay (NCI)
